Target: Aβ42 (Homo sapiens, UniProt P05067)
Assay: Th-T (thioflavin-T) assay of Aβ42 aggregation
Assay type: biochemical
Details: for Th-T assay plate reading, mean of three wells (Supplementary Fig. 47): source data, Ab alone and No Ab as controls

Sequence of Aβ42 (P05067 672-713): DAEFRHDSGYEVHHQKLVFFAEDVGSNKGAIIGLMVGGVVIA

C=C1CC[C@H]2[C@]3(C)C[C@H](C=C(C)C)O[C@H]3CC[C@]2(C)[C@@H]1Cc1c(OC)oc(CO)c(C)c1=O [Compound 18]
Th-T fluorescence, mean of three wells (Aβ42 aggregation time course, reading M117): 3.827 | Th-T fluorescence, mean of three wells (Aβ42 aggregation time course, reading M118): 3.826 | Th-T fluorescence, mean of three wells (Aβ42 aggregation time course, reading M119): 3.802 | Th-T fluorescence, mean of three wells (Aβ42 aggregation time course, reading M120): 3.809 | Th-T fluorescence, mean of three wells (Aβ42 aggregation time course, reading M121): 3.768 | Th-T fluorescence, mean of three wells (Aβ42 aggregation time course, reading M122): 3.8239 | Th-T fluorescence, mean of three wells (Aβ42 aggregation time course, reading M123): 3.779 | Th-T fluorescence, mean of three wells (Aβ42 aggregation time course, reading M124): 3.775 | Th-T fluorescence, mean of three wells (Aβ42 aggregation time course, reading M125): 3.791 | Th-T fluorescence, mean of three wells (Aβ42 aggregation time course, reading M126): 3.753 | Th-T fluorescence, mean of three wells (Aβ42 aggregation time course, reading M127): 3.782 | Th-T fluorescence, mean of three wells (Aβ42 aggregation time course, reading M128): 3.792 | Th-T fluorescence, mean of three wells (Aβ42 aggregation time course, reading M129): 3.762 | Th-T fluorescence, mean of three wells (Aβ42 aggregation time course, reading M130): 3.763 | Th-T fluorescence, mean of three wells (Aβ42 aggregation time course, reading M131): 3.755 | Th-T fluorescence, mean of three wells (Aβ42 aggregation time course, reading M132): 3.815 | Th-T fluorescence, mean of three wells (Aβ42 aggregation time course, reading M133): 3.777 | Th-T fluorescence, mean of three wells (Aβ42 aggregation time course, reading M134): 3.764 | Th-T fluorescence, mean of three wells (Aβ42 aggregation time course, reading M135): 3.756 | Th-T fluorescence, mean of three wells (Aβ42 aggregation time course, reading M136): 3.746 | Th-T fluorescence, mean of three wells (Supplementary Fig. 47, reading M137): 3.774 | Th-T fluorescence, mean of three wells (Supplementary Fig. 47, reading M138): 3.771 | Th-T fluorescence, mean of three wells (Supplementary Fig. 47, reading M139): 3.713 | Th-T fluorescence, mean of three wells (Supplementary Fig. 47, reading M140): 3.758 | Th-T fluorescence, mean of three wells (Supplementary Fig. 47, reading M141): 3.7322 | Th-T fluorescence, mean of three wells (Supplementary Fig. 47, reading M142): 3.721 | Th-T fluorescence, mean of three wells (Supplementary Fig. 47, reading M143): 3.695 | Th-T fluorescence, mean of three wells (Supplementary Fig. 47, reading M144): 3.702 | Th-T fluorescence, mean of three wells (Supplementary Fig. 47, reading M145): 3.716 | Th-T fluorescence, mean of three wells (Supplementary Fig. 47 source data, measurement M37 of time course): 3.803 | Th-T fluorescence, mean of three wells (Supplementary Fig. 47 source data, measurement M38 of time course): 3.788 | Th-T fluorescence, mean of three wells (Supplementary Fig. 47 source data, measurement M39 of time course): 3.823 | Th-T fluorescence, mean of three wells (Supplementary Fig. 47 source data, measurement M40 of time course): 3.844 | Th-T fluorescence, mean of three wells (Supplementary Fig. 47 source data, measurement M41 of time course): 3.831 | Th-T fluorescence, mean of three wells (Supplementary Fig. 47 source data, measurement M42 of time course): 3.8461 | Th-T fluorescence, mean of three wells (Supplementary Fig. 47 source data, measurement M43 of time course): 3.853 | Th-T fluorescence, mean of three wells (Supplementary Fig. 47 source data, measurement M44 of time course): 3.884 | Th-T fluorescence, mean of three wells (Supplementary Fig. 47 source data, measurement M45 of time course): 3.893 | Th-T fluorescence, mean of three wells (Supplementary Fig. 47 source data, measurement M46 of time course): 3.909 | Th-T fluorescence, mean of three wells (Supplementary Fig. 47 source data, measurement M47 of time course): 3.912 | Th-T fluorescence, mean of three wells (Supplementary Fig. 47 source data, measurement M48 of time course): 3.912 | Th-T fluorescence, mean of three wells (Supplementary Fig. 47 source data, measurement M49 of time course): 3.934 | Th-T fluorescence, mean of three wells (Supplementary Fig. 47 source data, measurement M50 of time course): 3.962 | Th-T fluorescence, mean of three wells (Supplementary Fig. 47 source data, measurement M51 of time course): 3.932 | Th-T fluorescence, mean of three wells (Supplementary Fig. 47 source data, measurement M52 of time course): 3.964 | Th-T fluorescence, mean of three wells (Supplementary Fig. 47 source data, measurement M53 of time course): 3.941 | Th-T fluorescence, mean of three wells (Supplementary Fig. 47 source data, measurement M54 of time course): 3.968 | Th-T fluorescence, mean of three wells (Supplementary Fig. 47 source data, measurement M55 of time course): 3.9543 | Th-T fluorescence, mean of three wells (Supplementary Fig. 47 source data, measurement M56 of time course): 4.004 | Th-T assay plate reading, mean of three wells (Supplementary Fig. 47) (measurement M1): 0.2027 | Th-T assay plate reading, mean of three wells (Supplementary Fig. 47) (measurement M2): 0.2169 | Th-T assay plate reading, mean of three wells (Supplementary Fig. 47) (measurement M3): 0.2567 | Th-T assay plate reading, mean of three wells (Supplementary Fig. 47) (measurement M4): 0.2868 | Th-T assay plate reading, mean of three wells (Supplementary Fig. 47) (measurement M5): 0.363 | Th-T assay plate reading, mean of three wells (Supplementary Fig. 47) (measurement M6): 0.3665 | Th-T assay plate reading, mean of three wells (Supplementary Fig. 47) (measurement M7): 0.43 | Th-T assay plate reading, mean of three wells (Supplementary Fig. 47) (measurement M8): 0.4699 | Th-T assay plate reading, mean of three wells (Supplementary Fig. 47) (measurement M9): 0.5243 | Th-T assay plate reading, mean of three wells (Supplementary Fig. 47) (measurement M10): 0.5956 | Th-T assay plate reading, mean of three wells (Supplementary Fig. 47) (measurement M11): 0.7582 | Th-T assay plate reading, mean of three wells (Supplementary Fig. 47) (measurement M12): 1.169 | Th-T assay plate reading, mean of three wells (Supplementary Fig. 47) (measurement M13): 1.941 | Th-T assay plate reading, mean of three wells (Supplementary Fig. 47) (measurement M14): 2.67 | Th-T assay plate reading, mean of three wells (Supplementary Fig. 47) (measurement M15): 3.082 | Th-T assay plate reading, mean of three wells (Supplementary Fig. 47) (measurement M16): 3.287 | Th-T fluorescence, mean of three wells (reading M17, Supplementary Fig. 47 source data): 3.39 | Th-T fluorescence, mean of three wells (reading M18, Supplementary Fig. 47 source data): 3.467 | Th-T fluorescence, mean of three wells (reading M19, Supplementary Fig. 47 source data): 3.485 | Th-T fluorescence, mean of three wells (reading M20, Supplementary Fig. 47 source data): 3.511 | Th-T fluorescence, mean of three wells (reading M21, Supplementary Fig. 47 source data): 3.555 | Th-T fluorescence, mean of three wells (reading M22, Supplementary Fig. 47 source data): 3.568 | Th-T fluorescence, mean of three wells (reading M23, Supplementary Fig. 47 source data): 3.6 | Th-T fluorescence, mean of three wells (reading M24, Supplementary Fig. 47 source data): 3.61 | Th-T fluorescence, mean of three wells (reading M25, Supplementary Fig. 47 source data): 3.637 | Th-T fluorescence, mean of three wells (reading M26, Supplementary Fig. 47 source data): 3.637 | Th-T fluorescence, mean of three wells (reading M27, Supplementary Fig. 47 source data): 3.663 | Th-T fluorescence, mean of three wells (reading M28, Supplementary Fig. 47 source data): 3.673 | Th-T fluorescence, mean of three wells (reading M29, Supplementary Fig. 47 source data): 3.697 | Th-T fluorescence, mean of three wells (reading M30, Supplementary Fig. 47 source data): 3.695 | Th-T fluorescence, mean of three wells (reading M31, Supplementary Fig. 47 source data): 3.715 | Th-T fluorescence, mean of three wells (reading M32, Supplementary Fig. 47 source data): 3.7502 | Th-T fluorescence, mean of three wells (reading M33, Supplementary Fig. 47 source data): 3.748 | Th-T fluorescence, mean of three wells (reading M34, Supplementary Fig. 47 source data): 3.745 | Th-T fluorescence, mean of three wells (reading M35, Supplementary Fig. 47 source data): 3.779 | Th-T fluorescence, mean of three wells (reading M36, Supplementary Fig. 47 source data): 3.8 | Th-T fluorescence, mean of three wells (time course, reading M57): 3.991 | Th-T fluorescence, mean of three wells (time course, reading M58): 4.013 | Th-T fluorescence, mean of three wells (time course, reading M59): 3.958 | Th-T fluorescence, mean of three wells (time course, reading M60): 3.988 | Th-T fluorescence, mean of three wells (time course, reading M61): 3.973 | Th-T fluorescence, mean of three wells (time course, reading M62): 3.97 | Th-T fluorescence, mean of three wells (time course, reading M63): 3.951 | Th-T fluorescence, mean of three wells (time course, reading M64): 3.976 | Th-T fluorescence, mean of three wells (time course, reading M65): 3.959 | Th-T fluorescence, mean of three wells (time course, reading M66): 3.962 | Th-T fluorescence, mean of three wells (time course, reading M67): 3.958 | Th-T fluorescence, mean of three wells (time-course reading M97, Supplementary Fig. 47 source data): 3.893 | Th-T fluorescence, mean of three wells (time-course reading M98, Supplementary Fig. 47 source data): 3.89 | Th-T fluorescence, mean of three wells (time-course reading M99, Supplementary Fig. 47 source data): 3.924 | Th-T fluorescence, mean of three wells (time-course reading M100, Supplementary Fig. 47 source data): 3.864 | Th-T fluorescence, mean of three wells (time-course reading M101, Supplementary Fig. 47 source data): 3.863 | Th-T fluorescence, mean of three wells (time-course reading M102, Supplementary Fig. 47 source data): 3.862 | Th-T fluorescence, mean of three wells (time-course reading M103, Supplementary Fig. 47 source data): 3.898 | Th-T fluorescence, mean of three wells (time-course reading M104, Supplementary Fig. 47 source data): 3.892 | Th-T fluorescence, mean of three wells (time-course reading M105, Supplementary Fig. 47 source data): 3.876 | Th-T fluorescence, mean of three wells (time-course reading M106, Supplementary Fig. 47 source data): 3.8607 | Th-T fluorescence, mean of three wells (time-course reading M107, Supplementary Fig. 47 source data): 3.854 | Th-T fluorescence, mean of three wells (time-course reading M108, Supplementary Fig. 47 source data): 3.8485 | Th-T fluorescence, mean of three wells (time-course reading M109, Supplementary Fig. 47 source data): 3.821 | Th-T fluorescence, mean of three wells (time-course reading M110, Supplementary Fig. 47 source data): 3.872 | Th-T fluorescence, mean of three wells (time-course reading M111, Supplementary Fig. 47 source data): 3.799 | Th-T fluorescence, mean of three wells (time-course reading M112, Supplementary Fig. 47 source data): 3.848 | Th-T fluorescence, mean of three wells (time-course reading M113, Supplementary Fig. 47 source data): 3.819 | Th-T fluorescence, mean of three wells (time-course reading M114, Supplementary Fig. 47 source data): 3.862 | Th-T fluorescence, mean of three wells (time-course reading M115, Supplementary Fig. 47 source data): 3.831 | Th-T fluorescence, mean of three wells (time-course reading M116, Supplementary Fig. 47 source data): 3.8198
